These results are taken from patent US8426385B2 (Hainan Hdeton Science and Technology Co. Ltd., priority 2006, dated 2013).

Data set [1] can be described thus: Animal body weight in the S180 anti-tumor test. As to conditions: S180 solid tumor, Kunming mice, intraperitoneal, 7 days.
Data set [2] can be described thus: Paclitaxel stability test in solution (HPLC assay). The data set is classed as physicochemical. As to conditions: mobile phase pH=6.50, diluted 100 times. As to the method: (§1) HPLC chromatographic conditions: chromatographic column ODS C18 (250 mm×4.6 mm); mobile phase: methanol:water:acetonitrile (20:30:50); flow rate: 1.0 ml/min; detection wavelength: 228 nm; detection time: 30.00 min; detection sensitivity: 1.0000 AUFS.
The sample solutions had stable chemical properties and the content was basically unchanged.

Data set [3] concerns S180 cells. Kind of data set: In vivo anti-tumor effect, S180 solid tumor model. Conditions: Kunming mice, intraperitoneal, 7 days, 5 mg/kg dose (printed for the inclusion).
The nature of data set [4]: Inclusion solubilization test (paclitaxel solubility in cyclodextrin solution). The data set is classed as physicochemical. As to conditions: 25° C.; for Paclitaxel solubility in cyclodextrin solution: 72 h.
Source text: A standard curve was plotted by A and concentration C (mg/ml) (A=393.2 C−0.0123; r=0.9998).
Data set [5] in a line: Solid inclusion stability, 5-day acceleration test (HPLC content). The format is physicochemical. As to the method: as §1
Samples were put in a sealed transparent container and then placed in an illumination box equipped with fluorescent light of 4500±500 LX illumination intensity for 5 days. Sampling inspection analysis was conducted, and the test results were compared with the samples of 0 day.
Samples were placed in a clean sealed container at temperature of 60° C. for 5 days. Sampling inspection analysis was conducted, and the test results were compared with the samples of 0 day.
Samples were placed in a sealed container of constant humidity at temperature of 25° C. and relative humidity of 90±5% for 5 days. Sampling inspection analysis was conducted, and the test results were compared with the samples of 0 day.

For data set [6] the following is noted: phase solubility studies; cited from earlier work.
A short description of data set [7]: Determination of inclusion stability constant Ka by UV spectrophotometry. The data set is classed as physicochemical. Conditions: 234 nm. As to the method: The inclusion stability constant Ka is used to determine the degree of inclusion and UV spectrophotometry is one of common methods to determine Ka. […] Meanwhile, the changes of Ka after adding ethanol are determined in the test, and the Ka values of different cyclodextrins are shown in Table 1.

For data set [8] the following is noted: cited from earlier work.
For data set [9] the following is noted: about 50% cyclodextrin aqueous solution, pure water; cited from earlier work.
For data set [10] the following is noted: aqueous solution; UV spectrum study; cited from earlier work.
[11] abbreviates: cyclodextrin concentration 31 %.

≈ marks a conversion by molar mass, not a printed value.

Turning to `CC(=O)O[C@H]1C(=O)[C@@]2(C)[C@H]([C@H](OC(=O)c3ccccc3)[C@]3(O)C[C@H](OC(=O)[C@H](O)[C@@H](NC(=O)c4ccccc4)c4ccccc4)C(C)=C1C3(C)C)[C@]1(OC(C)=O)CO[C@@H]1C[C@@H]2O` [Paclitaxel, (2S,5R,7S,10R,13S)-10,20-bi(acetoxy)-2-benzoyl-oxy-1,7-dihydroxy-9-oxo-5,20-epoxy taxanes-11-ene-13-radical(3S)-3-benzoyl amino-3-phenyl-D-lactic acid ester], the “effect on animal body weight” value in [1] is listed as “reduce the animal body weight”. Besides, in data set [1], the “weight loss of animals compared with the inclusion group” value is listed as “greater”. Further, the “Content in aqueous solution” value was 99.745% in [2] (0 h); 99.700% in data set [2] (2 h); 99.577% in [2] (4 h); 99.648% in data set [2] (6 h); 99.608% in [2] (8 h). In addition, the anti-tumor rate in data set [3] amounted to 82.77%. In data set [4] (thermodynamic from solid, pure water, cyclodextrin concentration 0 %), the solubility (commonly the concentration that dissolves in the medium under given conditions) at 72 h was 0.589 µg/mL (≈ 0.69 µM). In addition, the Content in data set [5] (0 day) is given as 99.748%; in data set [5] (High humidity, 25° C., RH 90±5%, 5 days), 89.336%; in [5] (High temperature, 60° C., 5 days), 91.569%; in data set [5] (Light, 4500±500 LX, 5 days), 90.346%.

On to `OC[C@H]1O[C@@H]2O[C@H]3[C@H](O)[C@@H](O)[C@@H](O[C@H]4[C@H](O)[C@@H](O)[C@@H](O[C@H]5[C@H](O)[C@@H](O)[C@@H](O[C@H]6[C@H](O)[C@@H](O)[C@@H](O[C@H]7[C@H](O)[C@@H](O)[C@@H](O[C@H]8[C@H](O)[C@@H](O)[C@@H](O[C@H]9[C@H](O)[C@@H](O)[C@@H](O[C@H]1[C@H](O)[C@H]2O)O[C@@H]9CO)O[C@@H]8CO)O[C@@H]7CO)O[C@@H]6CO)O[C@@H]5CO)O[C@@H]4CO)O[C@@H]3CO` [γ-cyclodextrin], for which, in data set [6], the “dual-inclusion constant with paclitaxel” value is 785 M⁻¹.

With hydroxypropyl-sulfobutyl-β-cyclodextrin, the “Paclitaxel solubility in cyclodextrin solution” value in data set [4] (setting [11]) came to 11177 µg/mL. Also, the “first-level apparent stability constant Ka of cyclodextrin/paclitaxel” value was 19722 M⁻¹ in data set [7] (60% EtOH) and 14121 M⁻¹ in data set [7] (H2O).

As for sulfobutyl-β-cyclodextrin, the water-solubility in data set [8] is given as over 50 g/100 g H2O. The “Paclitaxel solubility in cyclodextrin solution” value stood at 9324 µg/mL in [4] (cyclodextrin concentration 25 %) and 10182 µg/mL in data set [4] (setting [11]). In addition, the “first-level apparent stability constant Ka of cyclodextrin/paclitaxel” value in data set [7] (60% EtOH) was found to be 9367 M⁻¹; in data set [7] (H2O) it was 5396 M⁻¹.

For the compound hydroxypropyl-β-cyclodextrin, in [9], the paclitaxel solubility is 3400 µg/mL. For the same compound, in data set [10], the inclusion constant is 3030 M⁻¹. Further, the “dual-inclusion constant with paclitaxel” value in data set [6] is 7965 M^−. Besides, the “first-level apparent stability constant Ka of cyclodextrin/paclitaxel” value in data set [7] (60% EtOH) amounted to 4646 M⁻¹; in [7] (H2O) it was 1325 M⁻¹.

Regarding `OC[C@H]1O[C@@H]2O[C@H]3[C@H](O)[C@@H](O)[C@@H](O[C@H]4[C@H](O)[C@@H](O)[C@@H](O[C@H]5[C@H](O)[C@@H](O)[C@@H](O[C@H]6[C@H](O)[C@@H](O)[C@@H](O[C@H]7[C@H](O)[C@@H](O)[C@@H](O[C@H]8[C@H](O)[C@@H](O)[C@@H](O[C@H]1[C@H](O)[C@H]2O)O[C@@H]8CO)O[C@@H]7CO)O[C@@H]6CO)O[C@@H]5CO)O[C@@H]4CO)O[C@@H]3CO` [β-cyclodextrin], the “first-level apparent stability constant Ka of cyclodextrin/paclitaxel” value in data set [7] (H2O) is 413 M⁻¹.
